The target in one assay is T1, alpha2A receptor (Homo sapiens, UniProt P08913).
T1 sequence (P08913 1-465): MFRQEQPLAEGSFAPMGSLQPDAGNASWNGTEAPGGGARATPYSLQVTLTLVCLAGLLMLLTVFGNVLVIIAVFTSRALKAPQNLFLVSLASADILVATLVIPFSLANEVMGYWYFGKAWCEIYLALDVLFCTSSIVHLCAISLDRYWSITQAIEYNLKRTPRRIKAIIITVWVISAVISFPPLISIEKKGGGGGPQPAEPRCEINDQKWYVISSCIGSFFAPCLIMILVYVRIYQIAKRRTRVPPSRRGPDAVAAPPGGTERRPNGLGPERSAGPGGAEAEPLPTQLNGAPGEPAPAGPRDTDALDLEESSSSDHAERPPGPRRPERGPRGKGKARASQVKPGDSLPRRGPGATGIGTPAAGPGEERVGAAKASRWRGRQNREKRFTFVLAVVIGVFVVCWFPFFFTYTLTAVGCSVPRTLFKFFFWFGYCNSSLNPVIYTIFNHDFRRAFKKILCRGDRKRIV
The experiment in a line: cell-based. Particulars: for Emax: read-out: Alpha 2A intrinsic activity (IA), in parentheses.

The target of another assay is T2, alpha2C receptor (Homo sapiens, UniProt P18825).
T2 construct: expressed in transfected cells; host or cells: NIH-3T3 cells
T2 sequence (P18825 1-462): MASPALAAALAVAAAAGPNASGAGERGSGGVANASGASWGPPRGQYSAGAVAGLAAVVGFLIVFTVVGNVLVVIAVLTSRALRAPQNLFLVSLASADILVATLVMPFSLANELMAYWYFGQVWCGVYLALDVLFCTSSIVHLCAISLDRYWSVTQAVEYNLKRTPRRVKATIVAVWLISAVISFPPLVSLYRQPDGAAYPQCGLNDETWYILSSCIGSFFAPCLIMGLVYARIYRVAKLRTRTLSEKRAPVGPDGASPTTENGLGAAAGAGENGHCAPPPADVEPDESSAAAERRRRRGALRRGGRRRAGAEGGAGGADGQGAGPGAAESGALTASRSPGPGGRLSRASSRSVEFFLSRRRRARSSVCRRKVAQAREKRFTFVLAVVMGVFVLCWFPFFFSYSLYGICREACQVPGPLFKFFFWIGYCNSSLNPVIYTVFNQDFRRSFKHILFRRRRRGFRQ
Put plainly: Receptor Selection and Amplification Technology (RSAT) assay, alpha 2C. The format is cell-based. Particulars: for Emax: RSAT, maximal effect relative to standard full agonist brimonidine (UK14304), read-out: Alpha 2C intrinsic activity (IA), in parentheses. The protocol:
(§1) Receptor Selection and Amplification Technology (RSAT) Assay
(§2) The RSAT assay measures a receptor-mediated loss of contact inhibition that results in selective proliferation of receptor-containing cells in a mixed population of confluent cells. The increase in cell number is assessed with an appropriate transfected marker gene such as β-galactosidase, the activity of which can be easily measured in a 96-well format. Receptors that activate the G protein, Gq, elicit this response. Alpha2 receptors, which normally couple to Gi, activate the RSAT response when coexpressed with a hybrid Gq protein that has a Gi receptor recognition domain, called Gq/i5.
(§3) NIH-3T3 cells are plated at a density of 2×10^6 cells in 15 cm dishes and maintained in Dulbecco's modified Eagle's medium supplemented with 10% calf serum. One day later, cells are cotransfected by calcium phosphate precipitation with mammalian expression plasmids encoding p-SV-β-galactosidase (5-10 μg), receptor (1-2 μg) and G protein (1-2 μg). 40 μg salmon sperm DNA may also be included in the transfection mixture. Fresh media is added on the following day and 1-2 days later, cells are harvested and frozen in 50 assay aliquots. Cells are thawed and 100 μl added to 100 μl aliquots of various concentrations of drugs in triplicate in 96-well dishes. Incubations continue 72-96 hr at 37° C. After washing with phosphate-buffered saline, β-galactosidase enzyme activity is determined by adding 200 μl of the chromogenic substrate (consisting of 3.5 mM o-nitrophenyl-β-D-galactopyranoside and 0.5% nonidet P-40 in phosphate buffered saline), incubating overnight at 30° C. and measuring optical density at 420 nm. The absorbance is a measure of enzyme activity, which depends on cell number and reflects a receptor-mediated cell proliferation. The efficacy or intrinsic activity is calculated as a ratio of the maximal effect of the drug to the maximal effect of a standard full agonist for each receptor subtype. Brimonidine, also called UK14304, the chemical structure of which is shown below, is used as the standard agonist for the alpha2A, alpha2B and alpha2c receptors. The EC50 is the concentration at which the drug effect is half of its maximal effect.
(§4) EC50 values are nanomolar. ND stands for “not determinable” at concentrations less than 10 micromolar. IA stands for “intrinsic activity.”

The target in another assay is T3, alpha2B receptor (Homo sapiens, UniProt P18089).
T3 construct: expressed in transfected cells; host or cells: NIH-3T3 cells
T3 sequence (P18089 1-450): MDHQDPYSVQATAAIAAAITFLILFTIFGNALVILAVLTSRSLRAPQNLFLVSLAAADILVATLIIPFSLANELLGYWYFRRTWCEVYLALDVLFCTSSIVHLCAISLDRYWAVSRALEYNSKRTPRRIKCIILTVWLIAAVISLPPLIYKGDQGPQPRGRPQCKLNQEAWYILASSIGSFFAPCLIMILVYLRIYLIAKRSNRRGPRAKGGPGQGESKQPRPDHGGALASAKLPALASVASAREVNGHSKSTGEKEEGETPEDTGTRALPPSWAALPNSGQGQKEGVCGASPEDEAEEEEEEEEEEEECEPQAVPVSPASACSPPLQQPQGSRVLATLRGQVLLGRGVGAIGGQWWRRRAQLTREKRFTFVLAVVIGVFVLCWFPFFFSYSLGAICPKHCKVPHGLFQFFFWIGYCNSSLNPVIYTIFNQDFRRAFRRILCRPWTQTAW
The experiment in a line: Receptor Selection and Amplification Technology (RSAT) assay, alpha 2B. The format is cell-based. The following applies: for Emax: read-out: Alpha 2B intrinsic activity (IA), in parentheses. The method, then:
as §1, §2, §3, §4

Setting [1] is: RSAT in transfected NIH-3T3 cells, nd = not determinable at concentrations less than 10 micromolar, read-out: Alpha 2C EC50.
Where [2] appears, read: RSAT in transfected NIH-3T3 cells, nd = not determinable at concentrations less than 10 micromolar, read-out: Alpha 2B EC50.

Where two headings read alike, the source gives them in different places.

Method for alpha2A receptor: NIH-3T3 cells are plated at a density of 2×10^6 cells in 15 cm dishes and maintained in Dulbecco's modified Eagle's medium supplemented with 10% calf serum. One day later, cells are cotransfected by calcium phosphate precipitation with mammalian expression plasmids encoding p-SV-β-galactosidase (5-10 μg), receptor (1-2 μg) and G protein (1-2 μg). 40 μg salmon sperm DNA may also be included in the transfection mixture. Fresh media is added on the following day and 1-2 days later, cells are harvested and frozen in 50 assay aliquots. Cells are thawed and 100 μl added to 100 μl aliquots of various concentrations of drugs in triplicate in 96-well dishes. Incubations continue 72-96 hr at 37° C. After washing with phosphate-buffered saline, β-galactosidase enzyme activity is determined by adding 200 μl of the chromogenic substrate (consisting of 3.5 mM o-nitrophenyl-β-D-galactopyranoside and 0.5% nonidet P-40 in phosphate buffered saline), incubating overnight at 30° C. and measuring optical density at 420 nm. The absorbance is a measure of enzyme activity, which depends on cell number and reflects a receptor-mediated cell proliferation. The efficacy or intrinsic activity is calculated as a ratio of the maximal effect of the drug to the maximal effect of a standard full agonist for each receptor subtype. […] The EC50 is the concentration at which the drug effect is half of its maximal effect.

Consider `Cc1cccc2c1CCC2NC1=NCCN1` (stereo not shown), for which the Emax at alpha2A receptor turned out to be 20%; on alpha2C receptor, 38%; on alpha2B receptor, 98%. Further, the values for the EC50 on alpha2C receptor (setting [1]) and on alpha2B receptor were 0.429 µM and 0.0057 µM, respectively.

For the compound `Cc1cccc2c1CC[C@H]2NC1=NCCN1`, the Emax turned out to be 11% at alpha2A receptor, 11% at alpha2C receptor and 106% on alpha2B receptor. For the same compound, the response on alpha2B receptor was half-maximal at 0.0334 µM (EC50).

Turning to `CC1CC(NC2=NCCO2)c2ccccc21` (stereo not shown), the EC50 at alpha2A receptor turned out to be 0.007 µM; on alpha2C receptor (setting [1]), 0.0198 µM; at alpha2B receptor (setting [2]), 0.0022 µM. In addition, the Emax on alpha2A receptor is 25%; at alpha2C receptor it was 50%; on alpha2B receptor, 112%.

For `c1ccc2c(c1)CC(NC1=NCCN1)C2`, the Emax turned out to be 5% on alpha2A receptor, 5% at alpha2C receptor and 36% on alpha2B receptor. Also, the EC50 on alpha2B receptor (setting [2]) came out at 0.061 µM.

For the compound `c1ccc2c(c1)CC[C@@H]2NC1=NCCN1`, the Emax on alpha2A receptor was 4%; on alpha2C receptor, 11%; on alpha2B receptor, 82%. Further, the 50% effective concentration (EC50) on alpha2B receptor is 0.043 µM.

For `c1ccc2c(c1)CCC2NC1=NCCN1` (stereo not shown), the Emax on alpha2A receptor was 3%; on alpha2C receptor, 46%; at alpha2B receptor, 93%. The values for the EC50 on alpha2C receptor (setting [1]) and on alpha2B receptor were 0.207 µM and 0.017 µM, respectively.

For `Cc1cccc2c1CC[C@@H]2NC1=NCCS1`, the EC50 came to 0.143 µM on alpha2A receptor, 0.023 µM at alpha2C receptor (setting [1]) and 0.0034 µM on alpha2B receptor (setting [2]). Besides, the Emax at alpha2A receptor stood at 57%; on alpha2C receptor, 96%; at alpha2B receptor, 138%.

With `Cc1cccc2c1CC[C@@H]2NC1=NCCN1`, the values for the Emax at alpha2A receptor, on alpha2C receptor and at alpha2B receptor were 16%, 62% and 125%, respectively. Also, the figures for the EC50 at alpha2C receptor and on alpha2B receptor were 0.082 µM and 0.0045 µM, respectively.

Consider `Cc1ccc2c(c1)C(NC1=NCCN1)CC2` (stereo not shown), for which the Emax amounted to 7% on alpha2A receptor, 7% at alpha2C receptor and 34% on alpha2B receptor. Further, the half-maximal effective concentration (EC50) at alpha2B receptor (setting [2]) came to 0.473 µM.

For `CC1CC(NC2=NCCS2)c2ccccc21` (stereo not shown), the concentration for a half-maximal effect (EC50) came out at 0.18 µM on alpha2A receptor, 0.086 µM on alpha2C receptor and 0.01 µM at alpha2B receptor. The results for the Emax on alpha2A receptor, on alpha2C receptor and at alpha2B receptor were 25%, 41% and 99%, respectively.

With `Brc1cccc2c1CCC2NC1=NCCN1` (stereo not shown), the figures for the Emax at alpha2A receptor, on alpha2C receptor and at alpha2B receptor were 7%, 12% and 71%, respectively. Further, at alpha2B receptor, the concentration for a half-maximal effect (EC50) amounted to 0.0122 µM.

As to `c1ccc2c(c1)CCC2NC1=NCCS1` (stereo not shown), the Emax on alpha2A receptor was determined as 14%; at alpha2C receptor it was 102%; on alpha2B receptor, 107%. Moreover, the figures for the 50% effective concentration (EC50) on alpha2C receptor and on alpha2B receptor were 0.054 µM and 0.0075 µM, respectively.

By EC50 is commonly meant the concentration that produces a half-maximal response.
